# Laboratory results published in patent US10766914B2, “DNA alkylating agents” (OBI PHARMA, INC., priority 2015, dated 2020).
# How the values were obtained:
# [1] = Example 4-B body weight change, A549 xenograft study; type: in vivo, female nude mice (nu/nu)
# Procedure: (§1) Cells were mixed with Matrigel (50% with exception for 30% in the H460) and 0.2 ml per mouse were subcutaneously implanted to the flank area of the animals. When tumor size reached 100-150 250 mm3, mice were randomized into experimental or vehicle groups with 10 mice/group and treatment was started (Day 1). The tested compounds were formulated in 5% DMSO in D5W. The regimens employed in the examples include IP, QD×5/wk (5 days on, 2 days off) as one cycle, for a total of 2 cycles; IP, once; IP, weekly for total 3 weeks; and IV, weekly for 3 weeks. Tumor growth and body weight were measured twice a week. Tumor volume was calculated as (length×width2)/2. Drug efficacy was assessed as Tumor Growth Inhibition (TGI) and Tumor Growth Delay (TGD). TGI was defined as (1−ΔT/ΔC)×100, where ΔT/ΔC presented the ratio of the change in mean (or median, if variation within the group was relatively large) tumor volume of the treated group and of the control group. TGD was calculated as the extra days for the treated tumor to reach 500 mm3 or 1000 mm3 as compared to the control group. Animals were culled when individual tumor size reached over 2000 mm3 or mean tumor volume exceeded 1000 mm3 in the group. Data are expressed as the mean±SEM. One-way analysis of variance with Dunnett post comparison test (GraphPad Prism 4) or two-tailed student's t-test were used for analysis. A P level <0.05 was considered statistically significant.
# Antitumor effects of compounds provided herein were determined on A 549 non-small cell lung xenograft model in comparison with a chemotherapy agent, thiotepa. The dosing was as follows. Daily IP dosing: 5 doses then 2 days off then 5 more doses starting at 110 mm^3 tumors on day 1 (10 animals per group average tumor volume). The antitumor effects and the safety of administration are graphically illustrated below.
# [2] = tested on: A375 melanoma human tumor xenograft; assay: Example 4-C antitumor efficacy, ectopic A375 melanoma xenograft model; type: in vivo, female nude mice (nu/nu); conditions: qd × 5 × 2, ip; for inhibition in vivo at 10 mg/kg: A-375, 10 mpk
# From the text: (§2) Specific pathogen-free homozygous female nude mice (nu/nu, Charles River Laboratories) were used. Mice were given food and water ad libitum and housed in microisolator cages. Four to six week old animals were identified by microchips (Locus Technology, Manchester, Md., USA) at the time of the experiments. All animal studies were approved by the Institutional Animal Care and Use Committee at Threshold Pharmaceuticals, Inc.
# (§3) All cell lines were from the American Type Culture Collection (ATCC, Rockville, Md., USA).
# as §1
# his study employed an A375 melanoma human tumor xenograft model and various compounds provided herein were compared to thiotepa and the approved anti melanoma drug, nab-Paclitaxel.
# [3] = tested on: A 549 non-small cell lung xenograft; assay: Example 4-B antitumor efficacy, ectopic A549 NSCLC xenograft model; type: in vivo, female nude mice (nu/nu)
# From the text: as §2, §3, §1
# The dosing was as follows. Daily IP dosing: 5 doses then 2 days off then 5 more doses starting at 110 mm^3 tumors on day 1 (10 animals per group average tumor volume).
# Doses were selected by first doing a toxicity test in CD1 mice as described above. The compounds were tested against Thio-tepa.
# [4] = Example 4-C body weight change, A375 xenograft study; type: in vivo, female nude mice (nu/nu); conditions: qd × 5 × 2, ip
# Procedure: as §1
# his study employed an A375 melanoma human tumor xenograft model and various compounds provided herein were compared to thiotepa and the approved anti melanoma drug, nab-Paclitaxel. The antitumor effects and the safety of administration are graphically illustrated below.
# [5] = tested on: H460 cells; assay: Proliferation assay in H460 cells (2 hr exposure, AlamarBlue); type: cell-based, human; conditions: Homo sapiens, NCI-H460, 2 hrs exposure, wash, 70 hrs growth, read-out: IC 50 in proliferation assay in H460 cells
# Procedure: In vitro proliferation data on the H460 […] human tumor cell line is reported above in the compound table.
# Specifically, exponentially growing cells were seeded at a density of 4×10^3 cells per well in a 96 well plate and incubated at 37° C. in 5% CO2, 95% air and 100% relative humidity for 24 hours prior to addition of test compounds. Compounds were solubilized in 100% DMSO at 200 times the desired final test concentration. At the time of drug addition, compounds were further diluted to 4 times the desired final concentration with complete medium. Aliquots of 50 μl of compound at specified concentrations were added to microtiter wells already containing 150 μl of medium, resulting in the final drug concentration reported. After drug addition, the plates were incubated for an additional 2 hours at 37° C., 5% CO2, 95% air, and 100% relative humidity, then the drug was washed off and fresh medium was added and the plates were incubated for addition 70 hrs at 37° C., 5% CO2, 95% air and 100% relative humidity. At the end of this incubation, the viable cells were quantified using the AlamarBlue assay. The drug concentration resulting in growth inhibition of 50% (IC50) was calculated using Prism software (Irvine, Calif.), and the results were listed in the table.
# [6] = Pharmacokinetics in CD-1 mice following a single intraperitoneal dose (parent and TH2660); conditions: mouse, in vivo, ip, parent compound
# Procedure: The pharmacokinetics of TH2873, TH2883, TH2888, TH2890, TH2901 and TH2926 were determined in CD-1 mice following a single intraperitoneal dose.
# The pharmacokinetics of TH2660, the active metabolite, following a single intraperitoneal dose of TH2873, TH2883, TH2888, TH2890, TH2901 and TH2926 are shown below.
# [7] = tested on: A549 NSCLC xenograft; assay: Example 4-D antitumor efficacy, ectopic A549 NSCLC xenograft model; type: in vivo, female nude mice (nu/nu); conditions: 10 mg/kg IP QD × 5/wk × 2 wks
# From the text: as §2, §3, §1
# (§4) The compounds were tested in another A549 model. The compounds were dosed as follows. Daily IP dosing: 5 doses then 2 days off then 5 more doses starting at 100 mm^3 tumors on day 1 (10 animals per group average tumor volume). The antitumor effects and the safety of administration are graphically illustrated below.
# [8] = Example 4-D body weight change and lethal toxicity, A549 xenograft study; type: in vivo, female nude mice (nu/nu); conditions: 10 mg/kg IP QD × 5/wk × 2 wks
# Procedure: as §1, §4
Structure (SMILES),Max. BW loss % ([1]; 10 mg/kg ip QD × 5/wk × 2 wks),TGD 500 ([2]; 10 mpk),TGD 1000 ([2]; 10 mpk),"inhibition in vivo at 10 mg/kg ([2]; Mus musculus, read-out: TGI)",TGD 500 ([3]; 10 mg/kg ip QD × 5/wk × 2 wks),TGI ([3]; 10 mg/kg ip QD × 5/wk × 2 wks),Max. BW loss % ([4]; 10 mpk),IC50 [5],AUC [6],Cmax [6],Tmax [6],half-life [6],also measured
O=[N+]([O-])c1ccc(COP(=O)(N2CC2)N2CC2)cc1Oc1ccccc1 [Compound 2850],0.9%,-2 days,0 days,2.7%,70 days,94.3%,2.8%,20 nM,–,–,–,–,Max. BW loss % ([1]; 20 mg/kg ip QD × 5/wk × 2 wks): 7.4%; TGD 500 ([3]; 20 mg/kg ip QD × 5/wk × 2 wks): >72 days; TGI ([3]; 20 mg/kg ip QD × 5/wk × 2 wks): 88.1%
CC(OP(=O)(N1CC1)N1CC1)c1ccc([N+](=O)[O-])c(Oc2cccnc2)c1 (stereo not shown) [Compound 2852],0.0%,3 days,1 days,12.4%,>72 days,95.1%,2.6%,20 nM,–,–,–,–,–
COc1ccc(Oc2cc(C(C)OP(=O)(N3CC3)N3CC3)ccc2[N+](=O)[O-])cc1 (stereo not shown) [Compound 2873],–,–,–,–,–,–,–,5 nM,2100 ng·h/mL,8430 ng/mL,5 min,8.81 min,"TGD 500 ([2]; 40 mpk): 12 days; TGD 1000 ([2]; 40 mpk): 11 days; inhibition in vivo at 40 mg/kg ([2]; Mus musculus, A-375, 40 mpk, read-out: TGI): 65%; Max. BW loss % ([4]; 40 mpk): 0%"
CC(OP(=O)(N1CC1)N1CC1)c1ccc([N+](=O)[O-])c(Oc2ccc(S(C)(=O)=O)cc2)c1 (stereo not shown) [Compound 2883],–,–,–,–,–,–,–,30 nM,9080 ng·h/mL,7570 ng/mL,15 min,23.4 min,TGD 500 [7]: >85 days; TGI [7]: 93.5%; Max. BW loss % [8]: 15.8%; Lethal Tox ([8]; 10 animals per group): 5
O=[N+]([O-])c1ccc(COP(=O)(N2CC2)N2CC2)cc1Oc1ccc2c(c1)OCO2 [Compound 2888],–,6 days,6 days,37.3%,–,–,4.8%,3 nM,1600 ng·h/mL,5810 ng/mL,5 min,10.9 min,–
Cc1ccc(Oc2cc(COP(=O)(N3CC3)N3CC3)ccc2[N+](=O)[O-])cn1 [Compound 2890],–,10 days,10 days,58.4%,–,–,6.3%,6 nM,613 ng·h/mL,2730 ng/mL,5 min,5.49 min,–
